# According to the OligoGym collection:
# Oligonucleotides are written 5' to 3', each unit as a sugar letter and its base; * is a phosphorothioate linkage, no mark a phosphodiester; rarer units and linkages stand in square brackets, end groups in braces. Plain capitals give the bases only. d = 2'-deoxy (DNA); r = 2'-OH (RNA)
# Target: DENND5A
# Experiment: reporter assay of Huesken 2005
# Conditions: siRNA
# Note: test concentration or dose not given here.
row,Substance,normalised inhibition (eCFP-eYFP dual reporter) [%]
1,sense rArUrGrCrCrArArArUrGrGrCrUrGrGrUrGrGrAdTdT / antisense rUrCrCrArCrCrArGrCrCrArUrUrUrGrGrCrArUdAdC,69.5
2,sense rArArGrArGrGrArArUrGrGrGrArArCrArUrUrGdTdT / antisense rCrArArUrGrUrUrCrCrCrArUrUrCrCrUrCrUrUdGdT,50
3,sense rCrArGrArUrGrUrUrUrGrCrArUrCrUrUrUrCrAdTdT / antisense rUrGrArArArGrArUrGrCrArArArCrArUrCrUrGdGdG,75.3
4,sense rUrCrUrUrGrArUrUrCrArGrArArCrGrUrArGrGdTdT / antisense rCrCrUrArCrGrUrUrCrUrGrArArUrCrArArGrAdAdG,29.1
5,sense rGrGrArArArArGrUrUrGrGrArArGrUrGrCrGrUdTdT / antisense rArCrGrCrArCrUrUrCrCrArArCrUrUrUrUrCrCdAdG,60.8
6,sense rArGrArGrGrGrArGrArArGrUrArCrArUrCrCrAdTdT / antisense rUrGrGrArUrGrUrArCrUrUrCrUrCrCrCrUrCrUdGdG,80.7
7,sense rGrCrArCrUrUrCrCrArUrArArGrCrCrUrGrArGdTdT / antisense rCrUrCrArGrGrCrUrUrArUrGrGrArArGrUrGrCdTdT,78.7
8,sense rGrUrUrUrArGrArUrArArUrGrArCrCrArGrArGdTdT / antisense rCrUrCrUrGrGrUrCrArUrUrArUrCrUrArArArCdGdC,51.4
9,sense rCrArGrArUrCrUrGrCrArGrUrGrCrArArUrGrCdTdT / antisense rGrCrArUrUrGrCrArCrUrGrCrArGrArUrCrUrGdCdT,56.3
10,sense rCrCrArGrCrUrCrArCrUrCrArUrGrCrCrUrCrCdTdT / antisense rGrGrArGrGrCrArUrGrArGrUrGrArGrCrUrGrGdCdA,64.4
11,sense rUrUrGrArGrArArGrArArCrArUrUrCrArArArUdTdT / antisense rArUrUrUrGrArArUrGrUrUrCrUrUrCrUrCrArAdTdG,54.7
12,sense rArGrGrArGrArArUrUrGrGrGrUrGrArGrArCrAdTdT / antisense rUrGrUrCrUrCrArCrCrCrArArUrUrCrUrCrCrUdGdA,70.5
13,sense rArUrUrUrGrArCrUrUrUrCrCrUrGrUrCrArArAdTdT / antisense rUrUrUrGrArCrArGrGrArArArGrUrCrArArArUdAdG,53.7
14,sense rGrGrCrUrArArCrCrUrCrUrGrCrUrUrUrGrUrGdTdT / antisense rCrArCrArArArGrCrArGrArGrGrUrUrArGrCrCdTdC,70.2
15,sense rUrGrGrArUrGrArCrCrGrGrUrCrArArArGrCrUdTdT / antisense rArGrCrUrUrUrGrArCrCrGrGrUrCrArUrCrCrAdGdG,67.7
16,sense rUrUrUrGrGrGrUrUrUrGrCrCrCrUrCrArCrArUdTdT / antisense rArUrGrUrGrArGrGrGrCrArArArCrCrCrArArAdTdG,73.4
17,sense rUrCrCrCrCrUrUrUrGrCrArUrUrCrCrUrArCrGdTdT / antisense rCrGrUrArGrGrArArUrGrCrArArArGrGrGrGrAdGdC,44.7
18,sense rArGrArArCrUrUrGrGrGrGrArArGrCrUrUrArCdTdT / antisense rGrUrArArGrCrUrUrCrCrCrCrArArGrUrUrCrUdGdG,88.2
19,sense rUrUrCrGrUrGrUrGrCrUrGrCrArGrArCrArUrUdTdT / antisense rArArUrGrUrCrUrGrCrArGrCrArCrArCrGrArAdTdC,40.2
20,sense rGrArGrCrUrGrCrUrCrArCrArUrCrCrCrArGrCdTdT / antisense rGrCrUrGrGrGrArUrGrUrGrArGrCrArGrCrUrCdCdC,42.6
21,sense rArCrArUrCrCrArGrArArCrArUrCrGrGrGrGrAdTdT / antisense rUrCrCrCrCrGrArUrGrUrUrCrUrGrGrArUrGrUdGdC,44.4

row,Substance,normalised inhibition (eCFP-eYFP dual reporter) [%]
1,sense rGrGrGrArArArUrCrArGrCrCrUrUrArUrGrGrUdTdT / antisense rArCrCrArUrArArGrGrCrUrGrArUrUrUrCrCrCdCdT,61.1
2,sense rUrArUrGrArGrGrCrGrUrUrUrGrUrCrArUrCrCdTdT / antisense rGrGrArUrGrArCrArArArCrGrCrCrUrCrArUrAdAdT,44.9
3,sense rCrCrUrUrArUrGrGrUrCrCrCrArCrCrUrGrUrUdTdT / antisense rArArCrArGrGrUrGrGrGrArCrCrArUrArArGrGdCdT,62.5
4,sense rGrGrGrCrArUrGrGrArUrGrArUrGrGrArArGrCdTdT / antisense rGrCrUrUrCrCrArUrCrArUrCrCrArUrGrCrCrCdTdT,54.4
5,sense rGrCrUrGrArArGrArGrGrCrUrGrCrGrGrGrCrCdTdT / antisense rGrGrCrCrCrGrCrArGrCrCrUrCrUrUrCrArGrCdTdT,37.4
6,sense rUrGrArArGrGrArArUrGrCrCrGrCrArArUrArAdTdT / antisense rUrUrArUrUrGrCrGrGrCrArUrUrCrCrUrUrCrAdGdC,77.7
7,sense rUrUrArCrCrArGrArGrArCrUrGrArUrGrArCrUdTdT / antisense rArGrUrCrArUrCrArGrUrCrUrCrUrGrGrUrArAdTdG,28.8
8,sense rCrUrGrArGrGrArUrCrUrCrCrCrUrGrArUrUrCdTdT / antisense rGrArArUrCrArGrGrGrArGrArUrCrCrUrCrArGdGdG,60.6
9,sense rArGrGrCrUrGrArUrCrCrCrArGrGrGrArGrCrCdTdT / antisense rGrGrCrUrCrCrCrUrGrGrGrArUrCrArGrCrCrUdGdG,57.4
10,sense rArUrCrCrGrCrCrArGrCrCrCrArArArCrUrGrUdTdT / antisense rArCrArGrUrUrUrGrGrGrCrUrGrGrCrGrGrArUdAdG,40.9
11,sense rUrGrUrUrUrGrCrArGrArUrUrArUrGrArGrGrCdTdT / antisense rGrCrCrUrCrArUrArArUrCrUrGrCrArArArCrAdTdC,38.5
12,sense rArArUrGrGrGrArArCrArUrUrGrCrUrGrGrCrUdTdT / antisense rArGrCrCrArGrCrArArUrGrUrUrCrCrCrArUrUdCdC,43.6
13,sense rArUrCrCrArArCrCrCrArGrCrCrArGrGrArUrAdTdT / antisense rUrArUrCrCrUrGrGrCrUrGrGrGrUrUrGrGrArUdGdA,51.8
14,sense rCrArUrGrUrCrGrGrArGrCrGrUrGrCrUrGrGrAdTdT / antisense rUrCrCrArGrCrArCrGrCrUrCrCrGrArCrArUrGdCdC,60.8
15,sense rCrCrCrCrGrCrCrGrCrUrGrCrArGrCrArGrUrCdTdT / antisense rGrArCrUrGrCrUrGrCrArGrCrGrGrCrGrGrGrGdTdC,61.8
16,sense rCrUrGrArUrCrGrUrArCrCrArArGrCrArArGrAdTdT / antisense rUrCrUrUrGrCrUrUrGrGrUrArCrGrArUrCrArGdAdA,54.7
17,sense rGrCrCrCrGrGrArArCrUrUrCrUrGrCrCrGrArUdTdT / antisense rArUrCrGrGrCrArGrArArGrUrUrCrCrGrGrGrCdTdC,70.9
18,sense rArUrUrUrGrGrGrUrUrUrGrCrCrCrUrCrArCrAdTdT / antisense rUrGrUrGrArGrGrGrCrArArArCrCrCrArArArUdGdT,72.2
19,sense rArGrArGrUrGrCrCrUrCrCrArArGrCrUrGrArAdTdT / antisense rUrUrCrArGrCrUrUrGrGrArGrGrCrArCrUrCrUdCdA,66.9
20,sense rCrUrUrGrArGrArGrCrUrArCrArUrArUrArCrAdTdT / antisense rUrGrUrArUrArUrGrUrArGrCrUrCrUrCrArArGdGdG,74.2
21,sense rUrUrCrUrGrGrGrGrUrCrUrArUrGrGrGrCrCrAdTdT / antisense rUrGrGrCrCrCrArUrArGrArCrCrCrCrArGrArAdAdA,63.2

# Target: MRFAP1
# Experiment: reporter assay of Huesken 2005
# Conditions: siRNA
row,Substance,normalised inhibition (eCFP-eYFP dual reporter) [%]
1,sense rCrGrGrArCrGrCrGrCrGrCrCrCrGrUrGrCrGrCdTdT / antisense rGrCrGrCrArCrGrGrGrCrGrCrGrCrGrUrCrCrGdCdG,19.7
2,sense rArArCrUrUrUrGrGrGrUrCrCrCrUrGrUrGrArCdTdT / antisense rGrUrCrArCrArGrGrGrArCrCrCrArArArGrUrUdCdA,26.8
3,sense rCrCrCrArGrGrGrCrGrGrArGrArArGrGrCrCrGdTdT / antisense rCrGrGrCrCrUrUrCrUrCrCrGrCrCrCrUrGrGrGdGdC,65.6
4,sense rUrCrGrUrGrCrArGrArCrArArGrCrArArArGrCdTdT / antisense rGrCrUrUrUrGrCrUrUrGrUrCrUrGrCrArCrGrAdCdA,67.6
5,sense rArCrUrCrGrGrCrCrCrGrArGrCrUrCrGrGrUrCdTdT / antisense rGrArCrCrGrArGrCrUrCrGrGrGrCrCrGrArGrUdCdT,61.5
6,sense rArArGrGrUrUrCrArUrArUrGrUrArGrUrCrArAdTdT / antisense rUrUrGrArCrUrArCrArUrArUrGrArArCrCrUrUdGdA,85.4
7,sense rArArArUrUrUrUrArUrGrUrGrCrUrArCrArCrUdTdT / antisense rArGrUrGrUrArGrCrArCrArUrArArArArUrUrUdAdA,46.8
8,sense rCrCrCrUrGrUrGrArCrArCrUrGrArGrArCrUrUdTdT / antisense rArArGrUrCrUrCrArGrUrGrUrCrArCrArGrGrGdAdC,65.9
9,sense rGrArArArGrArUrCrCrUrUrGrCrArArUrArCrCdTdT / antisense rGrGrUrArUrUrGrCrArArGrGrArUrCrUrUrUrCdAdT,82.6
10,sense rGrUrGrUrGrUrUrCrCrUrGrArArUrUrUrGrArGdTdT / antisense rCrUrCrArArArUrUrCrArGrGrArArCrArCrArCdCdA,32.7
